Assay results: ChEMBL document CHEMBL1126375, “Synthesis of chiral phosphorus mustards derived from serine” (Bioorg Med Chem Lett, 1992)
The source made the active and inactive calls. No cut-off for these calls is given here.

Assays:
Tumor cell line = test: Compound was tested for in vitro activity against tumor cell lines; NA=No activity; type: functional, cell-based
[1] = system: Human immunodeficiency virus 1; test: Compound was tested for in vitro anti-human immunodeficiency virus activity; NA=No activity; type: functional, organism-based

SMILES	Activity (Tumor cell line)	Activity [1]
COC(=O)[C@H]1CO[P@](=O)(N(CCCl)CCCl)N1Cc1ccccc1	inactive	inactive
COC(=O)[C@@H]1CO[P@@](=O)(N(CCCl)CCCl)N1Cc1ccccc1 (stereo in doubt; 5a)	inactive	inactive
COC(=O)[C@@H]1CO[P@@](=O)(N(CCCl)CCCl)N1Cc1ccccc1 (stereo in doubt; 5b)	inactive	inactive
COC(=O)[C@@H]1CO[P@@](=O)(N(CCCl)CCCl)N1Cc1ccccc1 (stereo in doubt; 7a)	inactive	inactive
